Compound	logP
COc1ccc(-c2nc3ccncc3[nH]2)c(OC)c1	2.56
CC(=O)n1ccnc1	-0.34
CNC(=S)NC12CC3CC(CC(C3)C1)C2	2.67
COc1cc(C=NO)ccc1OCCOC(=O)c1ccccc1OC	2.84
FC(F)(F)CN(CC(F)(F)F)c1ccc(Br)cc1	4.7
CCOC(=O)CC(=O)C=Cc1ccc(C)cc1	2.63
Nc1ccc(S(=O)(=O)[O-])c2ccccc12.[Na+]	-2.34
CC(=O)Nc1cccc(OCc2cccc(N3C(N)=NC(N)=NC3(C)C)c2)c1	1.15
CC(=O)Nc1ccc2oc(C)c(C)c(=O)c2c1	1.79
Cc1oc2cc(OCC#N)ccc2c(=O)c1C	1.96
CC(=O)Nc1cccc(I)c1	2.64
CC(=O)NC1CCSC1=O (configuration not stated)	-0.35
OC(c1ccccc1)(c1ccccc1)c1ccccc1	3.68
O=C(OCCNC(=O)C(F)(F)F)c1ccccc1	2.25
COc1cc(C=NO)ccc1OCCOC(=O)COc1ccccc1	2.1
Cc1c(N(C)C)c(=O)[nH]c(=O)n1-c1ccccc1	1.4
Cc1nnc(SCc2ccccc2)o1	1.74
CN(CCO)C1=C(N2CC2)C(=O)C(N(C)CCO)=C(N2CC2)C1=O	-0.37
Cc1c(-c2ccccc2)oc2ccccc2c1=O	3.92
O=C1CC(C(=O)O)Oc2ccccc21 (configuration not stated)	1.26
c1ccn2nnnc2c1	-0.09
Cn1c(SCC2=C(C(=O)O)N3C(=O)C(NC(=O)Cc4cccs4)C3SC2)nnc(O)c1=O (configuration not stated)	-0.52
O=C(O)c1cc(=O)c2cc3c(cc2o1)CCCC3	3.4
O=C1/C(=C2\Nc3ccccc3C2=O)Nc2ccccc21	3.72

Compound	logP
COc1cc(C=NO)ccc1OCCOC(=O)c1ccccc1	2.94
Cc1nccnn1	-1.31
CC(C)CC(CC(C)C)OC(=O)c1ccc(NC(=O)N(C)C)cc1Cl	5.15
Cc1csc(N=C(N)N)n1	1.24
CC(=O)OC1OC(C)C(OC(C)=O)C(OC(C)=O)C1NC(=O)N(CCCl)N=O (configuration not stated)	1.32
CCCc1ccc(NC(C)=O)cc1	2.75
COc1cc(C)c2c(c1OC)-c1ccc(SC)c(=O)cc1C(NC1OCC(O)C(O)C1O)CC2 (configuration not stated)	1.4
c1ccc2c(c1)CNc1ccccc1C2	2.9
CC(C)OC(=O)c1ccccc1	3.18
CC(=O)OC1COC(NC(=O)N(CCl)N=O)C(OC(C)=O)C1OC(C)=O (configuration not stated)	1.13
COC(=O)c1ccccc1NC(C)=O	1.65
CNC(=N[N+](=O)[O-])NCCSCc1nc[nH]c1C	0.18
O=c1cn[nH]c(=O)[nH]1	-0.59
CC(=O)NC1=CC(=O)N(c2ccc(Cl)cc2)C1=O	0.75
COC1OC(COC(C)=O)C(OC(C)=O)C(NC(=O)N(CCCl)N=O)C1OC(C)=O (configuration not stated)	0.67
CCCCOC(=O)c1cccc(C(=O)OCCCC)c1	4.26
Cc1cccc(C)c1NC(=O)c1ccc(CN2CCCCC2)cc1	3.86
CN(C(=O)CCC#N)c1ccc(S(=O)(=O)N(C)C)cc1	-0.17
CN(C)CCC1CN(C)C(=S)c2cccnc2O1 (configuration not stated)	1.08
CN(Cc1ccccc1)N=Nc1ccc(C(=O)O)cc1	4.04
Cn1nnnc1SCc1ccccc1	1.63
C=CCn1c(=O)c(N(C)C)c(C)n(-c2ccccc2)c1=O	1.98
N[C@@H](CSC(c1ccccc1)(c1ccccc1)c1ccccc1)C(=O)O	2.06
CC1=Nc2ccc(I)cc2S(=O)(=O)N1	1.61

Compound	logP
CC(O)COc1cccc2oc(C(=O)O)cc(=O)c12 (configuration not stated)	1.32
CCC1OC(=O)C(C)C(OC2CC(C)(OC)C(O)C(C)O2)C(C)C(OC2OC(C)CC(N(C)C)C2O)C(C)(O)CC(C)C(=O)C(C)C(OC(C)=O)C1C (configuration not stated)	3.32
COc1cccc2c1C(=O)c1c(O)c3c(c(O)c1C2=O)CC(O)(C(=O)CO)CC3O (configuration not stated)	2.74
CC1CCCN(N=O)C1=O (configuration not stated)	-0.66
CC(=O)Nc1ccc(Oc2ccccc2)cc1	3.13
C#CCCC(=O)N(C)c1ccc(S(=O)(=O)N(C)C)cc1	0.88
C[n+]1c2cc(N)ccc2cc2ccc(N)cc21.[Cl-]	-1.78
CC(C)(C)[N+]([O-])=NC#N	1.4
O=NN(CCCl)C(=O)NC1CCC(NC(=O)N(CCCl)N=O)CC1 (configuration not stated)	2.74
O=C1c2ccccc2C(=O)C1(O)O	0.67
CCC(=O)OCC(=O)C1(OC(=O)CC)C(C)CC2C3CC(F)C4=CC(=O)C(Cl)=CC4(C)C3(F)C(O)CC21C (configuration not stated)	4.22
CSc1ccc(C=NN=C(N)NN)cc1	1.35
NC(=O)N=[N+]([O-])c1ccccc1	0.58
NC(=O)c1ncccc1O	0.65
S=C=Nc1cccc(Br)c1	4.12
CC(=O)Nc1ccc2nccnc2c1	1
O=CC(CO)OC(C=O)n1cnc2c(O)ncnc21 (configuration not stated)	-2.11
CS(=O)(=O)F	0.55
Cc1[nH]c(=O)[nH]c(=O)c1N(CCF)CCCl	0.85
CSc1ccc(C=NN=C(N)NO)cc1	0.32
COC(=O)c1cc2nc(S(=O)Cc3ncccc3C)[nH]c2cc1C (configuration not stated)	2.4
Cc1c(NCC(C)C)c(=O)n(-c2ccccc2)c(=O)n1C	1.48
O=[N+]([O-])c1ccc(/C=C/c2cccc(CO)n2)o1	1.37
CN(C)c1ccc(C(=C2C=CC(=[N+](C)C)C=C2)c2ccc(N(C)C)cc2)cc1.[Cl-]	0.96

From the OPERA property sets (Mansouri et al. 2018)
